Tests used:
rat NTPDase1 = target: T1, rat NTPDase1 (Rattus norvegicus, UniProt P97687); assay: Rat NTPDase1 inhibition, in-capillary electrophoresis method (standard compounds); assay type: biochemical; details: read-out: NTPDase1 Ki ± SEM
T1 sequence (P97687 1-511): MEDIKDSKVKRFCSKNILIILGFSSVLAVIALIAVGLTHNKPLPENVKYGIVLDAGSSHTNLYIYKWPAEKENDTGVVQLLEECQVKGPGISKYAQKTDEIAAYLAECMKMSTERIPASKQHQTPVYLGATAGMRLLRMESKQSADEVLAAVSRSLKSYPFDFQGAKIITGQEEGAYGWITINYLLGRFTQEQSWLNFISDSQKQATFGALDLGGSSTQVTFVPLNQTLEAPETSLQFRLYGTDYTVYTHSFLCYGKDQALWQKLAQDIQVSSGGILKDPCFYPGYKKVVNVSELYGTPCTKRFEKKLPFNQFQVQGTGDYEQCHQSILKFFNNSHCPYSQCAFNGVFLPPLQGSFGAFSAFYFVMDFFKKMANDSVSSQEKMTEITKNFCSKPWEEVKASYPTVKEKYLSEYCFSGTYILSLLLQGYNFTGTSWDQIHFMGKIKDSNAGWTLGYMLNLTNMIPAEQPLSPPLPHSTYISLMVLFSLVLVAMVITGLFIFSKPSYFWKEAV

P2Y6 = P2Y6 (Homo sapiens, UniProt Q15077); assay: Potency of standard compounds at P2Y6 receptor; details: for Ki: standard compounds, SEM not given
P2Y6, sequence (Q15077 whole entry, species assumed): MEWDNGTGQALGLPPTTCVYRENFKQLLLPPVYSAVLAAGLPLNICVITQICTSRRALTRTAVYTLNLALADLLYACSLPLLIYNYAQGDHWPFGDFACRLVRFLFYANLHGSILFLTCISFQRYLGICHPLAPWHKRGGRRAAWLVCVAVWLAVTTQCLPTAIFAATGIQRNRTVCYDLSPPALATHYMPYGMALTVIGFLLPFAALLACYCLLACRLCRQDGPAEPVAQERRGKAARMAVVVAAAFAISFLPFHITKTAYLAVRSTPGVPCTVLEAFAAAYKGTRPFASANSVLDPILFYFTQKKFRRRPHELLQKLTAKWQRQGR

rat NTPDase3 = target: T2, rat NTPDase3 (Rattus norvegicus, UniProt A6I415); assay: Rat NTPDase3 inhibition, in-capillary electrophoresis method (standard compounds); assay type: biochemical; details: read-out: NTPDase3 Ki ± SEM
T2 sequence (A6I415 1-529): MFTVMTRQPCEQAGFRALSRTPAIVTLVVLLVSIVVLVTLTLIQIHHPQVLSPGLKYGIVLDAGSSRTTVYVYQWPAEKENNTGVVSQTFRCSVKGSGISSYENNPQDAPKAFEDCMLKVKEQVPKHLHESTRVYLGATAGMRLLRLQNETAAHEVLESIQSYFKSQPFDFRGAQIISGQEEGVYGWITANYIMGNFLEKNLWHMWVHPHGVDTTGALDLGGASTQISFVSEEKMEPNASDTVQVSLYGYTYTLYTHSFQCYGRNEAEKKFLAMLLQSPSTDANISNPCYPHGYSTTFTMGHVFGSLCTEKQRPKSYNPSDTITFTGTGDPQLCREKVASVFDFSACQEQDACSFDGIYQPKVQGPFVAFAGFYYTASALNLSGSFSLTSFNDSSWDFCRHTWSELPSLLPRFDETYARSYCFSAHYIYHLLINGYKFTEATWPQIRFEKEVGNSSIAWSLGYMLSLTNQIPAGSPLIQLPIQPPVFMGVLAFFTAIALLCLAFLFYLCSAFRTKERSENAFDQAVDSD

P2X1 = P2X1 (Homo sapiens, UniProt P51575); details: standard inhibitors; reference mark 15; read-out: P2X1 Ki ± SEM; cited from earlier work
P2X1, sequence (P51575 whole entry, species assumed): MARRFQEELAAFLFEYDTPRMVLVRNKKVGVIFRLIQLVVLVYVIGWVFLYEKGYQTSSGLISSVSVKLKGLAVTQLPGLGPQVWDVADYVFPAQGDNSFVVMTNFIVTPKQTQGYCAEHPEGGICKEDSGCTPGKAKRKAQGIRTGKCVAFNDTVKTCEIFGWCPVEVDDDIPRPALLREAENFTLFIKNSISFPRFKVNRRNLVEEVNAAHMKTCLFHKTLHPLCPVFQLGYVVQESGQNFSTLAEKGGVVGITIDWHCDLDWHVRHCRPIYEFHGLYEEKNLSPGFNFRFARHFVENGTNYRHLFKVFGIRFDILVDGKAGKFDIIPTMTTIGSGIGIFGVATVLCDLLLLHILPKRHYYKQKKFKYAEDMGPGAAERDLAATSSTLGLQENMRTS

P2Y4 = P2Y4 (Homo sapiens, UniProt P51582); assay: Potency of standard compounds at P2Y4 receptor
P2Y4, sequence (P51582 whole entry, species assumed): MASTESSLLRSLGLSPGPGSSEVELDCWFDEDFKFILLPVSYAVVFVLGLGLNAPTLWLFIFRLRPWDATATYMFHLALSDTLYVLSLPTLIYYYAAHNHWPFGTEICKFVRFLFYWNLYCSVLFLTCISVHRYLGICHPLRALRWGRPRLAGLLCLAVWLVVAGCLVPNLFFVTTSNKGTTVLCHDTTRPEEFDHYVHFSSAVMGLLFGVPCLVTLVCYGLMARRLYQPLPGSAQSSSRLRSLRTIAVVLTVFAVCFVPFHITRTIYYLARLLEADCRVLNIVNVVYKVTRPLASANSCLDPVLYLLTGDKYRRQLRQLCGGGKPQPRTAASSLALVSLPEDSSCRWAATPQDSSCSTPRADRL

rat NTPDase2 = target: T3, rat NTPDase2 (Rattus norvegicus, UniProt O35795); assay: Rat NTPDase2 inhibition, in-capillary electrophoresis method (standard compounds); assay type: biochemical; details: read-out: NTPDase2 Ki ± SEM
T3 sequence (O35795 1-495): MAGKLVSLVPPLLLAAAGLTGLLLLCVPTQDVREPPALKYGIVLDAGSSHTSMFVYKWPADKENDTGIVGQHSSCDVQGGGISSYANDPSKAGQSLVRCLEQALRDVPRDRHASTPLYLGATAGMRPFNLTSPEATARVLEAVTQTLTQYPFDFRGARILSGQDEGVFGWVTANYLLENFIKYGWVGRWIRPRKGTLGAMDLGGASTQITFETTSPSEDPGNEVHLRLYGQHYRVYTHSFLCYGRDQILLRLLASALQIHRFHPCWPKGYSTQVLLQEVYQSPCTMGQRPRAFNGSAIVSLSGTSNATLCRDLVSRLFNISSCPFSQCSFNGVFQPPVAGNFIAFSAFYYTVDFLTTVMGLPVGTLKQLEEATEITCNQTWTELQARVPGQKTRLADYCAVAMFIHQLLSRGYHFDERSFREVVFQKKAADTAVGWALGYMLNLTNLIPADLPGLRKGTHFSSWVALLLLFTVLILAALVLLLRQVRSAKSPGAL

P2Y2 = P2Y2 (Homo sapiens, UniProt P41231); assay: Potency of standard compounds at P2Y2 receptor; details: SEM not given
P2Y2, sequence (P41231 whole entry, species assumed): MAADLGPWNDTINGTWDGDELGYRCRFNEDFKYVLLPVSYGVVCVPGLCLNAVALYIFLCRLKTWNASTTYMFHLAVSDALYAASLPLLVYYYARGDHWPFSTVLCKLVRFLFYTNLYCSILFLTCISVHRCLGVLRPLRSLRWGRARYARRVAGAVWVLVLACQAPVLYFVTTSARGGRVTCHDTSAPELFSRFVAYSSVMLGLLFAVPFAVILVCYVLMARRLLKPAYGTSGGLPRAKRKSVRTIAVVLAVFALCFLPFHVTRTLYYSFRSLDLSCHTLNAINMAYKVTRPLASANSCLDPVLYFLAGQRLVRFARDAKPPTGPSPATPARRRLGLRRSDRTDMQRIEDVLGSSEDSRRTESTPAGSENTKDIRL

P2X5 = P2X5 (Homo sapiens, UniProt Q93086); details: standard inhibitors; reference mark 15; read-out: P2X5 Ki ± SEM; cited from earlier work
P2X5, sequence (Q93086 whole entry, species assumed): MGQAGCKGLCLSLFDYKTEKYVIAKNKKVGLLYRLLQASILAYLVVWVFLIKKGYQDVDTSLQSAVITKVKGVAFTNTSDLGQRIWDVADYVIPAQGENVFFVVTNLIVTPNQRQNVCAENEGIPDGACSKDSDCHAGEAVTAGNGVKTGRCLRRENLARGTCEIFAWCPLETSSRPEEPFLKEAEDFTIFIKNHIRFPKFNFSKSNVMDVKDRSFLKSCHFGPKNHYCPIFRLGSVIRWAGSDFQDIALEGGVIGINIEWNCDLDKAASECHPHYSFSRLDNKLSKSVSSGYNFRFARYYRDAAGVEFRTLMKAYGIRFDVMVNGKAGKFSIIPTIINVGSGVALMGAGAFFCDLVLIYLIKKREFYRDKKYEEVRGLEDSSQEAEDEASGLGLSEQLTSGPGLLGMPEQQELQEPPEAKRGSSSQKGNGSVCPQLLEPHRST

P2X2 = P2X2 (Homo sapiens, UniProt Q9UBL9); details: standard inhibitors; reference mark 15; read-out: P2X2 Ki ± SEM; cited from earlier work
P2X2, sequence (Q9UBL9 whole entry, species assumed): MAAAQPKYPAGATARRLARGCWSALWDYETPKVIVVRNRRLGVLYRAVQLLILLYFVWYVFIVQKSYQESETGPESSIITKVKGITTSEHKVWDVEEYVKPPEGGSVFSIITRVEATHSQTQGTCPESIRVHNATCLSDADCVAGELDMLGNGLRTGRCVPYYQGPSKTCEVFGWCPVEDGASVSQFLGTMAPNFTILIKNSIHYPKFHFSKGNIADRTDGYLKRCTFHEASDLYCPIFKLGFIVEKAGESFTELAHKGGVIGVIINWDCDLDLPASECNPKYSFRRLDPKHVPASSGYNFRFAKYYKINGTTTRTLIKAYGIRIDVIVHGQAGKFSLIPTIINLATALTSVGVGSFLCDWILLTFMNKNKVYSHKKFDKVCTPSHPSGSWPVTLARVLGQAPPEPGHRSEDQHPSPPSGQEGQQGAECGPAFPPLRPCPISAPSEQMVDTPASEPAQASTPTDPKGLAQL

human NTPDase2 = target: T4, human NTPDase2 (Homo sapiens, UniProt Q9Y5L3); assay: NTPDase inhibition assay by capillary electrophoresis (CE), NTPDase2; assay type: biochemical; details: for inhibition at 1000 µM: read-out: NTPDase2 inhibition (%) at 1 mM
T4 sequence (Q9Y5L3 1-495): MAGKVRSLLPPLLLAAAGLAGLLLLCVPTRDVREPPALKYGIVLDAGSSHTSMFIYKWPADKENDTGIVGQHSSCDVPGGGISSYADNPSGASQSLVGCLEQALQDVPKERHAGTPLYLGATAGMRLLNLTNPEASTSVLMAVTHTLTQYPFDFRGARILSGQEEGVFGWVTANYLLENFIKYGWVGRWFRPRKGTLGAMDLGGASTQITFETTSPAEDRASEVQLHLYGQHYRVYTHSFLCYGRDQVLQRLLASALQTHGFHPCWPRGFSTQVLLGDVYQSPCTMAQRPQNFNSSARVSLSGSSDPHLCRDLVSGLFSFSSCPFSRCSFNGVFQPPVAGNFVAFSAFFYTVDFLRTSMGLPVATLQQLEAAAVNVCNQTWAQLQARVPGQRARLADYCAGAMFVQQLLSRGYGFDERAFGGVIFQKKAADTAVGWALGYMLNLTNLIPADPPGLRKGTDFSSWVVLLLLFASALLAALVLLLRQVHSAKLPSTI

hP2Y4 = hP2Y4 (Homo sapiens, UniProt P51582); assay: Inhibition of UTP binding at hP2Y4; details: read-out: hP2Y4 % inhibition of UTP binding at 100 μM, n = 3, mean ± SEM
hP2Y4, sequence (P51582 whole entry): as the sequence (P51582 whole entry, species assumed) above
Experimental: (§1) In table 2 inhibition data of selected examples at human P2Y receptor subtypes were collected. It can be seen that no compound was identified that inhibited P2Y receptors at high concentrations of 100 μM and 10 μM, respectively.

hP2Y2 = hP2Y2 (Homo sapiens, UniProt P41231); assay: Inhibition of UTP binding at hP2Y2; details: read-out: hP2Y2 % inhibition of UTP binding at 100 μM, n = 3, mean ± SEM
hP2Y2, sequence (P41231 whole entry): as the sequence (P41231 whole entry, species assumed) above
Experimental: as §1

human NTPDase1 = target: T5, human NTPDase1 (Homo sapiens, UniProt P49961); assay: NTPDase inhibition assay by capillary electrophoresis (CE), NTPDase1; assay type: biochemical; details: CE method, ATP 320 μM, Km 17 μM, read-out: NTPDase1 Ki [μM] ± SEM
T5 sequence (P49961 1-510): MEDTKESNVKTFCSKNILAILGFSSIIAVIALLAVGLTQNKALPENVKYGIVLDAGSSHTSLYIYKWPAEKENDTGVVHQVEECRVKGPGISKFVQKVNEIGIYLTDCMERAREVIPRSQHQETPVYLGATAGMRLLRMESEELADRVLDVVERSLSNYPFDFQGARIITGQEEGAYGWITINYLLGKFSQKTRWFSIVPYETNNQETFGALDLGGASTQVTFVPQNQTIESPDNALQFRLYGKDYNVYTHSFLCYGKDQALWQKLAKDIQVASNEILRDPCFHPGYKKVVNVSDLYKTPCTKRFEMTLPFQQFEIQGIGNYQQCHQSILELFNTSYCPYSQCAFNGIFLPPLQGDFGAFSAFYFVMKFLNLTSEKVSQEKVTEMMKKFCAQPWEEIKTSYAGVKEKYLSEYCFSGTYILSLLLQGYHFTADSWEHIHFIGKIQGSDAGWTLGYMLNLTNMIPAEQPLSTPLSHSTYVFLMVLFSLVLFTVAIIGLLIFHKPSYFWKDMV
Summary of the method: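 Recombinant or native human NTPDase was run with 320 μM ATP in Hepes buffer pH 7.4 (NaCl, KCl, MgCl2, CaCl2) at 37° C for 15 min, stopped by heating at 99° C. Products were quantified by capillary electrophoresis (UV 210 nm, UMP internal standard). IC50 from 6-8 concentrations was converted to Ki by Cheng-Prusoff.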

hP2Y12 = hP2Y12 (Homo sapiens, UniProt Q9H244); assay: Inhibition of [3H]PSB-0413 binding at hP2Y12; details: mean ± SEM, read-out: hP2Y12 % Inhibition of [^3H]PSB-0413 Binding at 10 μM, n = 3
hP2Y12, sequence (Q9H244 whole entry): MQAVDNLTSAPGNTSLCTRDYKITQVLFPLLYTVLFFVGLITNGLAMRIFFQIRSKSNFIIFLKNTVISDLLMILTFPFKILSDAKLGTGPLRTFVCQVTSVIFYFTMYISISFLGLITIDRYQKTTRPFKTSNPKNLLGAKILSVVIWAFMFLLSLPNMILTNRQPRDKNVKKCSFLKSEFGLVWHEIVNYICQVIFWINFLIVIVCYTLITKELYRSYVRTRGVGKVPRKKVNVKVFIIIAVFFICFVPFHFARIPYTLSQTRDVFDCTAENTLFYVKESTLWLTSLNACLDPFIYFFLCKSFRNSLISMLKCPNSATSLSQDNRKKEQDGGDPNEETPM
Experimental: as §1

rP2Y6 = rP2Y6 (Rattus norvegicus, UniProt Q63371); assay: Inhibition of UDP binding at rP2Y6; details: read-out: rP2Y6 % inhibition of UDP binding at 100 μM, n = 3, mean ± SEM
rP2Y6, sequence (Q63371 whole entry): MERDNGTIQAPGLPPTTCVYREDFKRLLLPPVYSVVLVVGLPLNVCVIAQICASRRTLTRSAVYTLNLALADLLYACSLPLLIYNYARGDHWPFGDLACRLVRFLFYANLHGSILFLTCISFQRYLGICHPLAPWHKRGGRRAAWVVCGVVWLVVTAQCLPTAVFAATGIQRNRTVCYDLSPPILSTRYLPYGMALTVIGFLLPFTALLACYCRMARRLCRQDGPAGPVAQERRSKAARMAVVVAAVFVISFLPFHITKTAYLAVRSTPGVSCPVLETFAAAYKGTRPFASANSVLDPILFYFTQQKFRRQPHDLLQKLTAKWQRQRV

P2Y12 = P2Y12 (Homo sapiens, UniProt Q9H244); assay: Potency of standard compounds at P2Y12 receptor; details: SEM not given
P2Y12, sequence (Q9H244 whole entry, species assumed): as the sequence (Q9H244 whole entry) above

P2X3 = P2X3 (Homo sapiens, UniProt P56373); details: standard inhibitors; reference mark 15; read-out: P2X3 Ki ± SEM; cited from earlier work
P2X3, sequence (P56373 whole entry, species assumed): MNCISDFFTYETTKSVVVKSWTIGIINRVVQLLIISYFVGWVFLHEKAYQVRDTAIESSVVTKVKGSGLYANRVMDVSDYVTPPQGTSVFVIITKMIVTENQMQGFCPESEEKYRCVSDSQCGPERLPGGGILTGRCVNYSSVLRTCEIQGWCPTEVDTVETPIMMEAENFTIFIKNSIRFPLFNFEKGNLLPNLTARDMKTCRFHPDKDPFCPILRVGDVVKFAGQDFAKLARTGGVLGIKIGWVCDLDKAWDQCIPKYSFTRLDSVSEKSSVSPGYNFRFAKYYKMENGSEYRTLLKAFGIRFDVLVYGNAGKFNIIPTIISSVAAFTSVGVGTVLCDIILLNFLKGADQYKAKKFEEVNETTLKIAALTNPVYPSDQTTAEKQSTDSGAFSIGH

[1] = test system: ecto-nucleotide pyrophosphatases (E-NPP); details: in words; cited from earlier work
[2] = standard compounds, SEM not given

Structure (SMILES) | Ki (rat NTPDase1) [µM] | Ki (rat NTPDase3) [µM] | Ki (P2X1) [µM] | Ki (rat NTPDase2) [µM] | Ki (P2Y6) [µM] | Ki (P2X5) [µM] | Ki (P2Y2) [µM] | Ki (P2X2) [µM] | Ki (human NTPDase2) [µM] | inhibition at 1000 µM (human NTPDase2) [%] | inhibition at 100 µM (hP2Y4) [%] | inhibition at 100 µM (hP2Y2) [%] | Ki (human NTPDase1) [µM] | inhibition at 10 µM (hP2Y12) [%] | inhibition at 100 µM (rP2Y6) [%] | also measured
Cc1nc(N=Nc2ccc(S(=O)(=O)O)cc2S(=O)(=O)O)c(COP(=O)(O)O)c(C=O)c1O [PPADS, pyridoxalphosphate-6-azophenyl-2′,4′-disulfonic acid] | 46 ± 0.01 | 3 ± 0.001 | 0.13 | 44.2 ± 0.03 |  |  |  |  |  |  |  |  |  |  |  | P2Y6 inhib. at 100 μM (P2Y6; 100 μM): 69%; P2Y4 inhib. at 100 μM (P2Y4; 100 μM): 73%; P2Y2 Ki ± SEM [μM] (P2Y2): inactive
Cc1ccc(C(=O)Nc2ccc(S(=O)(=O)O)c3cc(S(=O)(=O)O)cc(S(=O)(=O)O)c23)cc1NC(=O)c1cccc(NC(=O)Nc2cccc(C(=O)Nc3cc(C(=O)Nc4ccc(S(=O)(=O)O)c5cc(S(=O)(=O)O)cc(S(=O)(=O)O)c45)ccc3C)c2)c1 [Suramin, suramin] | 300 ± 0.1 | 12.7 ± 0.03 |  | 65.4 ± 0.01 | > 100 | 1.6 | 50 | 10 |  |  |  |  |  |  |  | P2Y4 Ki ± SEM [μM] (P2Y4; [2]): inactive
CCOP(=O)(OCC)C(NC(=O)CCCNC(=O)[C@H]1O[C@@H](n2ccc(=O)[nH]c2=O)C(O)C1O)P(=O)(OCC)OCC (stereo in doubt) [Compound 12, 4-[(2S,3R,4S,5R)-5-(2,4-Dioxo-3,4-dihydropyrimidin-1(2H)-yl)-3,4-dihydroxytetrahydrofurane-2-carboxamido]butaneamidomethylenediphosphonic acid tetraethylester] |  |  |  |  |  |  |  |  | ~165 | 54 | 27 ± 7 | -44 ± 20 | 32.4 ± 1.1 | 1 ± 5 | 18 ± 4 | 
CCOP(=O)(OCC)C(NC(=O)CNC(=O)[C@H]1O[C@@H](n2ccc(=O)[nH]c2=O)C(O)C1O)P(=O)(OCC)OCC (stereo in doubt) [Compound 10, 2-[(2S,3R,4S,5R)-5-(2,4-Dioxo-3,4-dihydropyrimidin-1(2H)-yl)-3,4-dihydroxy-tetrahydrofurane-2-carboxamido]ethaneamidomethylenediphosphonic acid tetraethylester] |  |  |  |  |  |  |  |  | ~165 | 54 | 34 ± 15 | -38 ± 11 | 93 ± 14 | 2 ± 5 | 8 ± 14 | 
Nc1c(S(=O)(=O)O)cc(Nc2ccc(Nc3nc(Cl)nc(Nc4cccc(S(=O)(=O)O)c4)n3)c(S(=O)(=O)O)c2)c2c1C(=O)c1ccccc1C2=O [RB2, reactive blue 2] |  |  | 2 |  | 31 | 20 | 1 | 0.4 |  |  |  |  |  |  |  | Ki (P2Y4; [2]): > 100 µM; Ki (P2Y12): 1.3 µM; Ki (P2X3): 50 µM
CCN(CC)c1ncnc2c1ncn2C1OC(COP(=O)(O)OP(=O)(O)C(Br)(Br)P(=O)(O)O)C(O)C1O (stereo not drawn) [ARL67156, N^6-Diethyl-β,γ-dibromomethylene-ATP] | 27 ± 0.004 | 112.1 ± 0.05 |  | > 600 |  |  |  |  |  |  |  |  |  |  |  | metabolic stability towards ecto-nucleotide pyrophosphatases (E-NPP) [1]: metabolically unstable
